Results: patent publication US8309611B2, “Methods and compositions for treating lung cancer” (Golden Biotechnology Corporation, priority 2011, dated 2012)
Values after ≈ are worked out from the molar mass of the structure shown. Where two headings read alike, the source gives them in different places.

Assays:
A549 = test: MTT cell survival assay, A549; assay type: cell-based; details: Homo sapiens
Description: (§1) The NCI anti-cancer drug screen model was adopted to test anti-cancer effect of the exemplary compounds from Example 1. The isolated compound 1 from Example 1 was added into the culture media of human lung-cancer cells, A549, NCI-H460, CL1-0, CL1-5 or DMS 114, to test for tumor cell survival (either by MTT assay or colony formation assay). Compounds 4, 5, 6, and 7 were used in MTT assay against A549.
(§2) A549, CL1-0, and CL1-5 cells are human lung adenocarcinoma cell lines. CL1-0 cells are minimally invasive sub-lines with low migration. CL1-5 cell line, on the other hand, is highly invasive with high migration ability. The NCI-H460 cell line is derived from human large cell lung cancer, which is one of the major types of non-small cell lung carcinoma. DMS 114 is small cell lung cancer cell line, and was obtained from the American Type Culture Collection (Manassas, Va.).
MTT assay is commonly used to determine cell proliferation, percent of viable cells, and cytotoxicity. MTT (3-[4,5-dimethylthiazol-2-yl]2,5-diphenyltetrazolium bromide) is a yellow dye, which can be absorbed by the living cells and be reduced to purplish blue formazan crystals by succinate tetrazolium reductase in mitochondria. Formazan formation can therefore be used to assess and determine the survival rate of cells.
A549, NCI-H460, CL1-0, CL1-5 and DMS 114 cells were suspended and cultured in 10% fetal bovine serum (Life Technologies Inc.) containing RPM1-1640 culture medium that also includes 1% penicillin and 1% streptomycin. Human bronchial epithelium cell line, BEAS-2B was used as a control. The BEAS-2B cell line was cultured in LHC-9 serum-free medium. All these cell lines were incubated under 5% CO2, 37° C. for 24 hours. After cell proliferation, the cells were washed once with PBS, treated with the trypsin-EDTA, and then centrifuged at 1,200 rpm for 5 minutes to separate cells from supernatant. The cells were re-suspended in fresh culture medium (10 mL) and placed in 96 well plates.
To each of the 96 well plates containing A549, NCI-H460, CL1-0, CL1-5, DMS 114 or BEAS-2B, 0.03, 0.1, 0.3, 1 and 3 μg/ml of compound 1 were add. The 96 well plates were incubated at 37° C., 5% CO2 for 48 hours. Subsequently, in the dark environment to each well of the plates were added 2.5 mg/ml of MTT. The reaction was terminated by addition of 100 ul of lysis buffer after 4 hours. The survival rate of cells was calculated based on the measurement of absorption at the 570 nm wavelength by enzyme immunoassay analyzer.

NCI-H460 = test: MTT cell survival assay, NCI-H460; assay type: cell-based; details: Homo sapiens, 48 hours, read-out: IC50 (μg/ml), in vitro cell survival rate test, NCI-H460
Description: as §1, §2
(§3) MTT assay is commonly used to determine cell proliferation, percent of viable cells, and cytotoxicity. […]
(§4) To each of the 96 well plates containing A549, NCI-H460, CL1-0, CL1-5, DMS 114 or BEAS-2B, 0.03, 0.1, 0.3, 1 and 3 μg/ml of compound 1 were add. […] The survival rate of cells was calculated based on the measurement of absorption at the 570 nm wavelength by enzyme immunoassay analyzer.

DMS 114 = test: MTT cell survival assay, DMS 114; assay type: cell-based; details: Homo sapiens, 48 hours, read-out: IC50 against DMS 114
Description: as §1, §2, §3, §4

[1] = Drug distribution in organs analysis (LC/MS/MS); assay type: in vivo, CD-1 male mice; details: CD-1 mice, iv 2 mg/Kg, 0.25-4 hours, plasma, kidney, small and large intestine
Description: Experiments described herein were performed on CD-1 male mice (average weight 24±2 grams, provided by BioLasco, Taiwan). The mice were injected intravenously with a solution of compound 1 in 5% ethanol and 30% PEG400 (2 mg/Kg body weight). After 0.25, 0.5, 1, 2, 4 hours of the iv injection, 0.5 ml of blood was collected via cardiac puncture. The bloods were placed in a centrifuge tube containing K-EDTA and centrifuged for 15 min at 4° C. under 1500 g to produce supernatants (plasma sample). At the same time points, lung, kidney, small intestine and large intestine of the mice were collected and preserved at −70° C. for similar analysis.
The concentration of compound 1 in various organ samples (i.e., plasma, large intestine, left kidney, lung, right kidney and small intestine) were analyzed by LC/MS/MS spectrometer (Waters Alliance 2790 LC and Micromass Quattro Ultima). For example, plasma sample was mixed with acetonitrile and then centrifuged to prepare supernatant that was analyzed by LC/MS/MS. The pharmacokinetic parameters were obtained by WinNonlin™ software by non-compartment method.

[2] = 48 hours, read-out: IC50 (μg/ml), in vitro cell survival rate test, A549

Structure (SMILES)	IC50 (A549; [2])	IC50 (NCI-H460)	IC50 (DMS 114)	Concentration in lung versus other organs (FIG. 10) [1]	IC50 (A549; read-out: IC50 on A549 (text))
COC1=C(OC)C(O)C(C/C=C(\C)CC/C=C(\C)CCC=C(C)C)C(C)C1=O (stereo not drawn) [Compound 1, 4-hydroxy-2,3-dimethoxy-6-methyl-5-(3,7,11-trimethyldodeca-2,6,10-trienyl)cyclohex-2-enone]	0.45 µg/mL	0.82 µg/mL (≈ 2.1 µM)	16 µM	significantly higher concentration than other organs	
COC1=C(O)C(O)C(C/C=C(\C)CC/C=C(\C)CCC=C(C)C)C(C)C1=O (stereo not drawn) [Compound 4, 3,4-dihydroxy-2-methoxy-6-methyl-5-(3,7,11-trimethyldodeca-2,6,10-trienyl)cyclohex-2-enone]	3.24 µg/mL				
COC1=C(OC)C(O)C(C/C=C(\C)CC/C=C(\C)CCCC(C)(C)OC)C(C)C1=O (stereo not drawn) [Compound 7, 4-hydroxy-2,3-dimethoxy-5-(11-methoxy-3,7,11-trimethyldodeca-2,6-dienyl)-6-methylcyclohex-2-enone]	10.5 µg/mL				
COC1=C(OC)C(O)C(C/C=C(\C)CC/C=C(\C)CCCC(C)(C)O)C(C)C1=O (stereo not drawn) [Compound 5, 4-hydroxy-5-(11-hydroxy-3,7,11-trimethyldodeca-2,6-dienyl)-2,3-dimethoxy-6-methylcyclohex-2-enone]	13.5 µg/mL				
COC1=C(OC)C(O)C(C/C=C(\C)CCC(=O)O)C(C)C1=O (stereo not drawn) [Compound 6]	28 µg/mL				28 µM
